Tests used:
[1] = Storage stability of crystal form; format: physicochemical
Method: Compound (1) can exist in a crystal form having an x-ray diffraction pattern of least 5 diffraction angles)(20±0.2° selected from 7.7°, 9.5°, 10.3°, 12.3°, 14.5°, 15.6°, 16.3°, 17.8°, 18.3°, 19.3°, 20.9°, 22.8°, 24.2°, 25.7°, 26.8°, 27.7°, 29.0°, and 30.1° in a powder x-ray diffraction spectrum. Preferably the crystal form has peaks at diffraction angles)(20±0.2° 7.7°, 9.5°, 10.3°, 12.3°, 14.5°, 15.6°, 16.3°, 17.8°, 18.3°, 20.9°, 22.8°, 24.2°, 25.7°, 26.8°, 27.7°, 29.0°, and 30.1°. […] The method preparing this crystal form is described in U.S. Pat. No. 10,323,044 the content of which is incorporated herein in its entirety.

[2] = Clearance / accumulation in the body; settings: in vivo
Text: A 4 days on and 3 days off cycle in a week is one such cycle, the cycle may be modified to accommodate patients having pharmacokinetics allowing for more days on or requiring more days off such as 5 days on and 2 days off or 3 days on and 4 days off or 6 days on and 1 day off, or 6 days on and 1 day off. The 4 days on and 3 days off regimen or a modified regimen may be repeated for a 21-day cycle or a longer cycle. For example, Compound (1) or its pharmaceutically acceptable salt may be administered consecutively on each of the following four days during a 21-day period: days 1 through 4, days 8 through 11, and days 15 through 18, with a prescribed rest on days 5 through 7, days 12 through 14, and days 19 through 21. Such intermittent administration is applicable also to the combination therapies where Compound (1) or its pharmaceutical acceptable salt is administered in combination with one or more agents.

[3] = system: tumor in patients with advanced cancer; experiment: Phase 2 clinical study, tumor shrinkage / response; format: in vivo, human
Method: (§1) The following examples report the results of phase 2 clinical studies where Compound 1 in tablet form was administered orally to patients with different tumor type. In this trial Compound 1 was administered once/day at a dosage of 16 mg/day or 20 mg/day for a 21 day cycle which was repeated as desired. The compound was also administered intermittently on a schedule of 4 days and 3 days off for 21 days per cycle. The cycle was repeated as desired identifies the adverse events in the trials.
The reported shrinkages are over 50% for patient 100-006, about 10% for patients 100-009 and about 5% for patient 200-007.

[4] = Phase 2 clinical study, treatment-related adverse events; format: in vivo, human
Method: as §1
A total of 8 patients (50%) experienced at least 1 treatment-related event of Grade ≥3; the most frequently reported event of this kind was rash and maculopapular rash (25.0%).

[5] = system: endometrial cancer harboring PIK3CA mutation; ovarian clear cell carcinoma; experiment: Objective response in patients given oral Compound (1); format: in vivo, human

With `C[C@]1(O)C[C@@](N)(c2ccc(-c3nc4n(c3-c3ccccc3)COc3ccncc3-4)cc2)C1` [Compound (1)] the shelf life indicated ([1]; room temperature, inferred from 40° C. six-month storage) was 24 month, the stability on storage ([1]; stored at 40° C. for six months) was “good stability” and the “clearance from the body” value [2] was “not cleared from the body quickly but can accumulate in the body”. The “patients with tumor shrinkage” value ([3]; of the 15 patients treated, PIDs 100-006, 200-005, 100-009, 200-007) was 4 patients, the “response in the target lesion (Lymph Node)” value ([3]; patient 100-006) was “complete response” and the tumor shrinkage ([3]; patient 100-006) was “over 50%”. The tumor shrinkage ([3]; patient 100-009) was “about 10%”, the tumor shrinkage ([3]; patient 200-007) was “about 5%” and the “treatment-related Grade ≥3 AE: hyperglycemia” value ([4]; Grade ≥3) was 12.5%. The “treatment-related Grade ≥3 AE: mucositis oral” value ([4]; Grade ≥3) was 12.5%, the “treatment-related Grade ≥3 AE: neutrophil count decreased” value ([4]; Grade ≥3) was 12.5% and the “treatment-related Grade ≥3 AE: rash and maculopapular rash” value ([4]; Grade ≥3) was 25.0%. The “treatment-related AE: decreased appetite” value ([4]; any grade) was 18.8%, the “treatment-related AE: diarrhea” value ([4]; any grade) was 18.8% and the “treatment-related AE: fatigue” value ([4]; any grade) was 37.5%. For the same compound, the “treatment-related AE: hyperglycemia” value ([4]; any grade) was 31.3%, the “treatment-related AE: mucositis oral” value ([4]; any grade) was 18.8% and the “treatment-related AE: nausea” value ([4]; any grade) was 12.5%. For the same compound, the “treatment-related AE: pruritus” value ([4]; any grade) was 25.0%, the “treatment-related AE: rash and maculopapular rash, patients” value ([4]; any grade, up to 20 mg QD / 24 mg intermittent) was 62.5% and the safety profile ([4]; up to 20 mg QD and 24 mg intermittent dosing, patients with advanced cancer) was “generally acceptable and clinically manageable”. The “patients with objective response” value ([5]; endometrial cancer harboring PIK3CA mutation) was “one” and the “patients with objective response” value ([5]; ovarian clear cell carcinoma) was 3 patients.
